Measured values published in patent US6432879B1, “Substituted phenyl uracils” (Bayer Aktiengesellschaft, priority 1997, dated 2002).

Columns and labels:
weeds [1] = experiment: Pre-emergence test, action against weeds; assay type: in vivo; conditions: soil sprayed about 24 hours after sowing, rated after three weeks vs untreated control
Method: (§1) Solvent: 5 parts by weight of acetone
(§2) Emulsifier: 1 part by weight of alkylaryl polyglycol ether
To produce a suitable preparation of active compounds, 1 part by weight of active compound is mixed with the stated amount of solvent, the stated amount of emulsifier is added and the concentrate is diluted with water to the desired concentration.
Seeds of the test plants are sown in normal soil. After about 24 hours, the soil is sprayed with the preparation of active compounds such that the particular amounts of active compound desired are applied per unit area. The concentration of the spray liquor is chosen so that the particular amounts of active compound desired are applied in 1000 l of water/ha.
(§3) After three weeks, the degree of damage to the plants is rated in % damage in comparison to the development of the untreated control.
(§4) 0%=no effect (like untreated control)

weeds [2] = experiment: Post-emergence test, activity against weeds; assay type: in vivo; conditions: test plants of 5-15 cm sprayed, rated after three weeks vs untreated control
Method: as §1, §2
To produce a suitable preparation of active compound, 1 part by weight of active compound is mixed with the stated amount of solvent, the stated amount of emulsifier is added and the concentrate is diluted with water to the desired concentration.
Test plants of a height of 5-15 cm are sprayed with the preparation of active compound such that the particular amounts of active compound desired are applied per unit area. The concentration of the spray liquor is chosen so that the particular amounts of active compound desired are applied in 1000 l of water/ha.
as §3, §4

Row | Structure (SMILES) | melting point | action against weeds (degree of damage to the plants) (weeds [1]) | activity against weeds (degree of damage to the plants) (weeds [2])
1 | O=c1cc(C(F)(F)F)[nH]c(=O)n1-c1ccc(OCc2ccc(Cl)cc2)cc1[N+](=O)[O-] [Example 1, 1-[4-(4-chloro-phenylmethoxy)-2nitrophenyl]-4-trifluoromethyl-3,6-dihydro-2,6-dioxo-1(2H)-pyrimidin] | 237 °C |  | 
2 | O=c1cc(C(F)(F)F)[nH]c(=O)n1-c1ccc(OCc2ccc(Cl)nc2)cc1[N+](=O)[O-] [Example 2, 1-[4-(2-chloro-pyridin-5-yl-methoxy)-2-nitrophenyl]-4-trifluoromethyl-3,6-dihydro-2,6-dioxo-1(2H)-pyrimidine] | 209 °C |  | 
3 | Cn1c(C(F)(F)F)cc(=O)n(-c2ccc(OCc3ccc(Cl)cc3)cc2[N+](=O)[O-])c1=O [Example 3, 1-[4-(4-chloro-phenylmethoxy)-2-nitrophenyl]-3-methyl-4-trifluoromethyl-3,6-dihydro-2,6-dioxo-1(2H)-pyrimidine] | 159 °C | strong action | 
4 | Nn1c(C(F)(F)F)cc(=O)n(-c2ccc(OCc3ccc(Cl)nc3)cc2[N+](=O)[O-])c1=O [Example 4, 3-amino-1-[4-(2-chloro-pyridin-5-yl-methoxy)-2-nitro-phenyl]-4-trifluoromethyl-3,6-dihydro-2,6-dioxo-1(2H)-pyrimidine] | 193 °C |  | 
5 | Cn1c(C(F)(F)F)cc(=O)n(-c2ccc(OCc3ccc(Cl)cc3)cc2N)c1=O [Example 5, 1-[2-amino-4-(4-chloro-phenylmethoxy)-phenyl]-3-methyl-4-trifluoromethyl-3,6-dihydro-2,6-dioxo-1(2H)-pyrimidine] | 166 °C | strong action | strong activity
6 | CC(=O)Nc1cc(OCc2ccc(Cl)cc2)ccc1-n1c(=O)cc(C(F)(F)F)n(C)c1=O [Example 7, 1-[2-acetylamino-4-(4-chloro-phenylmethoxy)-phenyl]-3-methyl-4-trifluoromethyl-3,6-dihydro-2,6-dioxo-1(2H)-pyrimidine] | 230 °C | strong action | strong activity
